The target of experiment [1] is T1, CryoR1 (Cryobacterium levicorallinum, UniProt A0A1I3DJQ0).
T1 construct: gene E3O11_09160
T1 sequence (A0A1I3DJQ0 3-327): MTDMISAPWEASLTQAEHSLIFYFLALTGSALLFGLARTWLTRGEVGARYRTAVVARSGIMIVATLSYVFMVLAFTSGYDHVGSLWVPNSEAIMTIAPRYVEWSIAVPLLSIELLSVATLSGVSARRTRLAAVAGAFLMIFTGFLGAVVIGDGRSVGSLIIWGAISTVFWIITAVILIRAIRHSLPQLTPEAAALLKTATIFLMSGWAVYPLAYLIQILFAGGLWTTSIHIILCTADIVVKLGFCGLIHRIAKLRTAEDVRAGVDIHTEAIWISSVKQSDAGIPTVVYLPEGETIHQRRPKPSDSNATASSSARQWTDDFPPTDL
Nature of the experiment: cryo-EM structure (light-accumulated M2 state), […] A. In kind it is binding. The settings on record: covalent deprotonated Schiff base (K241); photoproduct formed in situ from all-trans-retinal; pH 10.5; 530/532 nm illumination.

Experiment [2] concerns the target CryoRhodopsin 2 (CryoR2) from Subtercola sp. AK-R2A1-2 (Subtercola sp. AK-R2A1-2). Nature of the experiment: cryo-EM structure.
Experiment [3] shares this target. Nature of the experiment: crystal structure.
The target in the next experiment is T2, CryoR3 (Cryobacterium frigoriphilum, UniProt A0A4R8ZY77).
T2 construct: gene E3T55_12175
T2 sequence (A0A4R8ZY77 42-365): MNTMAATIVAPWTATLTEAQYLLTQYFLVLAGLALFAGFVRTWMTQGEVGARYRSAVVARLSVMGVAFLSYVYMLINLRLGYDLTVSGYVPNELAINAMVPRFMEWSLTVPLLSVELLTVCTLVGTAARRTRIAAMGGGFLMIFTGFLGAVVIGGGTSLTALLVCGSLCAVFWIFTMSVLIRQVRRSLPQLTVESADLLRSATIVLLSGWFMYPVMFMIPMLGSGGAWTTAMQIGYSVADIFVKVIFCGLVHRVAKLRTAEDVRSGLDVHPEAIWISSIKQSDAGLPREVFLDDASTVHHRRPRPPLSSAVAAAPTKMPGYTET
Nature of the experiment: UV-Vis absorption and flash photolysis of purified holoprotein. The format is binding. The settings on record: covalent Schiff base; detergent; pH 8.0.

Another experiment concerns the target T3, CryoR4 (Subtercola vilae, UniProt A0A4T2CD69).
T3 construct: gene D4765_01930
T3 sequence (A0A4T2CD69 1-317): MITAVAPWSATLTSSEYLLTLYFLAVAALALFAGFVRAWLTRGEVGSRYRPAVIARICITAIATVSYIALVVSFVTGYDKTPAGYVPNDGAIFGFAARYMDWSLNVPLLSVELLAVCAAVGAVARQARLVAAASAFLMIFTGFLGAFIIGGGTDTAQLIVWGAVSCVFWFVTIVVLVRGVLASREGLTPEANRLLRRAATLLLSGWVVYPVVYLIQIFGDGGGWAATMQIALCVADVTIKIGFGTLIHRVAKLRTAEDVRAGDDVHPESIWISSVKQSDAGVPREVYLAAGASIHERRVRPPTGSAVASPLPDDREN
Described as above. In kind it is binding. The settings on record: covalent Schiff base; detergent; pH 8.0.

The target of experiment [4] is T4, CryoR1 (Cryobacterium levicorallinum, UniProt A0A1I3DJQ0, R59T).
T4 construct: gene E3O11_09160
T4 sequence (A0A1I3DJQ0 entry or part of it R59T): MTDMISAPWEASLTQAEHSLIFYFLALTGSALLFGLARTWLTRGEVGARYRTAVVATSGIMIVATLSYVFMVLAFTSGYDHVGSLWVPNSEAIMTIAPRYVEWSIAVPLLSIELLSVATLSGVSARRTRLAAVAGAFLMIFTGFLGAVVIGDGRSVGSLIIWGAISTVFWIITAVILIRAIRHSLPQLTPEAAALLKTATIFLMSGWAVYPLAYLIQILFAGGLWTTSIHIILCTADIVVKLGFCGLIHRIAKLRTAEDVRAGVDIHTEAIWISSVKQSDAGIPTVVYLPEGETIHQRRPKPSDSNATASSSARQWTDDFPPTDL
The experiment is described as above. In kind it is binding. The settings on record: covalent Schiff base (K241); detergent; pH 8.0 and 10.5.

A further experiment has as its target T5, CryoR1_1–263 (Cryobacterium levicorallinum, UniProt A0A1I3DJQ0).
T5 construct: gene E3O11_09160
T5 sequence (A0A1I3DJQ0 3-265): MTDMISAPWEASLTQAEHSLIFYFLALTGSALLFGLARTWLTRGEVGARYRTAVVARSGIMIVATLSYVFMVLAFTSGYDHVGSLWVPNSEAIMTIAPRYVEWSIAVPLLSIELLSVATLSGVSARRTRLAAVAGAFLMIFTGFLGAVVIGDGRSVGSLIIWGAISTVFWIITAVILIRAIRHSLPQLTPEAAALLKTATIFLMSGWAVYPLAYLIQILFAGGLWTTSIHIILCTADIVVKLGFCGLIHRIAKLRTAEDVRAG
The experiment is described as above. The format is binding. The settings on record: covalent Schiff base; detergent; pH 8.0.

The target of experiment [5] is T1, CryoR1. Nature of the experiment: cryo-EM structure (ground state). In kind it is binding. The settings on record: covalent Schiff base (K241); pH 4.3, 8.0 and 10.5; detergent micelles or nanodisc.
The target of a further experiment is T6, CryoR5 (Subtercola boreus, UniProt A0A3E0VLV3).
T6 construct: gene B7R54_12135
T6 sequence (A0A3E0VLV3 1-318): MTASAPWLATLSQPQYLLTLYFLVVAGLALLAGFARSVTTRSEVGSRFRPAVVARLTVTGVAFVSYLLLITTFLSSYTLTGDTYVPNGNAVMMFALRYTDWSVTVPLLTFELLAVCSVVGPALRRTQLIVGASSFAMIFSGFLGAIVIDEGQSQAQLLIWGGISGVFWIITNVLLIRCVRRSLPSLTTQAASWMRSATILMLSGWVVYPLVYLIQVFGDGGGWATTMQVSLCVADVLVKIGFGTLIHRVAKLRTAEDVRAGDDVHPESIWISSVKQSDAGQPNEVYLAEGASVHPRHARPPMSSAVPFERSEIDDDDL
Nature of the experiment: UV-Vis absorption and flash photolysis of purified holoprotein. In kind it is binding. The settings on record: covalent Schiff base; detergent; pH 8.0.

The target of experiment [6] is CryoRhodopsin 1 (CryoR1) from Cryobacterium levicorallinum, wild type (Cryobacterium levicorallinum). Nature of the experiment: cryo-EM structure.
Experiment [7] shares this target. Nature of the experiment: SEC. A general note: In gel filtration, larger molecules generally elute earlier.
For experiment [8] the target is unchanged. Nature of the experiment: cryo-EM structure. The source holds these as a separate data set.

Regarding `CC1=C(/C=C/C(C)=C/C=C/C(C)=C\C=O)C(C)(C)CCC1` [13-cis retinal], the “cryo-EM structure (light-accumulated M2 state), 2.3 A” value at CryoR1 [1] is reported as “strongly suggests the 13-cis conformation of the cofactor in the M2 state”.
For the molecule “CryoRhodopsin 2 (CryoR2) from Subtercola sp. AK-R2A1-2 (natural protein)”, the stoichiometry N in experiment [2] and in experiment [3] was 5 each time.
On to `CC1=C(/C=C/C(C)=C/C=C/C(C)=C/C=O)C(C)(C)CCC1` [all-trans-retinal], for which the “UV-Vis absorption and flash photolysis of purified holoprotein” value at CryoR3 was “CryoR1-5 differ in their UV–visible (Vis) absorption spectra”; at CryoR4, “CryoR1-5 differ in their UV–visible (Vis) absorption spectra”; on CryoR1 [4], “we studied the spectroscopic properties of the R57T mutant of CryoR1”; at CryoR1_1–263 it was “spectral properties of the truncated variant of CryoR1”; at CryoR5 it was “CryoR1-5 differ in their UV–visible (Vis) absorption spectra”. Also, the “cryo-EM structure (ground state)” value at CryoR1 [5] is on record as “presence of a single state, which we assigned to the ground state”.
Regarding “CryoRhodopsin 1 (CryoR1) from Cryobacterium levicorallinum, wild type (natural protein)”, the stoichiometry N in [6], in experiment [7] and in experiment [8] was 5 each time.

Broadly, the stoichiometry N is a count of units in the complex or per binding partner.

The values above are taken from PMC12227055 (Science Advances, 2025).
